Data reported in patent publication US10822325B2, “Human GLUT5 specific inhibitors and methods of treatment” (UNM RAINFOREST INNOVATIONS, priority 2015, dated 2020).
“Also recorded” adds a separate entry of the source.

Target: T1, human GLUT5 (Homo sapiens, UniProt P22732)
T1 construct: Full length DNA was subcloned into pFastBac1 (Life Technologies) vector with a N-terminal hexahistidine tag; hexahistidine (N); made in house; host or cells: Sf21 insect cells (baculovirus, pFastBac1)
T1 sequence (P22732 1-501): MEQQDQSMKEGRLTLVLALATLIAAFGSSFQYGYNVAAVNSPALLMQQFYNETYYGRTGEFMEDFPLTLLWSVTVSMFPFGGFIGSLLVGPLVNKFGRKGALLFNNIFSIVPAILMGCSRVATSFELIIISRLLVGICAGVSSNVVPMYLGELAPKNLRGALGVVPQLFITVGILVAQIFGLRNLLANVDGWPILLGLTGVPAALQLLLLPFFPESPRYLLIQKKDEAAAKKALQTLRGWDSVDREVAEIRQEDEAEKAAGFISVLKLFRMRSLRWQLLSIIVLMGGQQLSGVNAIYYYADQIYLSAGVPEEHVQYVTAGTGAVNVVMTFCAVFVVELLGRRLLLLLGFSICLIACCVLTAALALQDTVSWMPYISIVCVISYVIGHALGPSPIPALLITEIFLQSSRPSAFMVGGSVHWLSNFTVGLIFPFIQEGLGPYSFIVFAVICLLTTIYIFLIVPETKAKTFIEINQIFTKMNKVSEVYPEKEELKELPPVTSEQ
Assay: Fructose entrance counter-flow transport in GLUT5 proteoliposomes
Type: biochemical
Settings: for effect on GLUT5 fructose transport: 2 mM compound, one minute
Protocol: cDNAs of GLUT1, 3, 4 and 5 were purchased from Open Biosystems (GE Healthcare). cDNAs of GLUT2 was a gift from Prof. Graeme Bell at University of Chicago. Full length DNA was subcloned into pFastBac1 (Life Technologies) vector with a N-terminal hexahistidine tag. Bacmids were generated in DH10Bac E. coli cells (Life Technologies). Baculoviruses were produced using Cellfectin II Reagent and amplified in Sf21 insect cells (Life Technologies). Cells were maintained at 26° C., and P1 (10^6 pfu/mL) was collected from infected cells after 72 hours. SF21 cells were propagated in HyClone SFX-Insect media (GE Healthcare), supplemented with 5% fetal bovine serum (Biowest), 4.8 mM glutamine, antibiotics (100 units/mL Penicillin G and 100 μg/mL streptomycin sulfate) and amphotericin B (2.5 μg/mL). For recombinant protein expression, SF21 cells in suspension culture at 2×10^6 cells/ml were infected with P3 viral stock (10^8 pfu/mL), at an MOI of 1.0 pfu/cell. Four days after viral infection, cells from 1 L culture were collected by centrifugation at 2,000 g and 25 °C. The cell pellet was resuspended in 120 mL of 50 mM sodium phosphate (NaPi) (pH 7.5), 5% (v/v) glycerol, 200 mM sodium chloride (buffer A), with protease inhibitors (1 mM AEBSF, 10 μM E-64, 10 μM pepstatin A, 1 μM Aprotinin, 20 μM Bestatin, 20 μM Leupeptin), at 4° C., and disrupted by sonication (Branson Ultrasonic). n-Dodecyl-β-D-maltopyranoside (DDM, EMD chemicals) was added to a final concentration of 1% (w/v) in the broken cell solution, and the mixture was incubated at 4° C. with stirring, for 4 hours. The solubilized protein solution was clarified by ultracentrifugation at 200,000 g and 4° C. for 1 hour, and the supernatant was loaded onto the Ni-NTA resin (Novagen) and washed with buffer containing 50 mM NaPi (pH 7.5), 500 mM NaCl, 5-20 mM imidazole, 5% (v/v) glycerol and 0.05% (w/v) DDM. GLUT1 (or GLUT2-5, wild-type or mutants) was eluted with buffer A, containing 300 mM imidazole and 0.05% DDM (w/v). To generate DNA for mutant proteins, site-directed mutagenesis was performed on the pFastBac1 plasmid constructs of wild-type proteins and verified by DNA sequencing^37. Mutant proteins were expressed and purified in the same manner as wild-type proteins with no modifications.
Proteoliposomes were generated according to the protocol of^16,38 with minor modifications. Liposomes were made from a 95%/5% mix of soy phosphatidylcholine and cholesterol (Avanti Polar Lipids). Prepared liposomes were destabilized with 4 mM Triton X-100 and mixed with purified protein in a 100:1 (w/w) ratio in 100 mM KPi (pH 7.5), 20% (v/v) glycerol, 200 mM glucose for GLUT1-4 and GLUT1F379H or fructose for GLUT5 (wild-type and H387F mutant) and GLUT2. Detergent was removed by several additions of SM2 BioBeads (BioRad) and incubated overnight at 4° C. […]
For the entrance counterflow transport in proteoliposomes, the assay was started by the addition of 5 μL proteoliposomes solution (OD600 nm ˜30) to 200 μL, assay solution, containing 10 μM ^14C-radiolabeled glucose (for GLUT1 wild-type or F379H mutant and GLUT2-4) or fructose (for GLUT5 wild-type or H387F mutant and GLUT2) (Moravek Biochemicals) in 100 mM KPi buffer at pH 7.5. After one minute (or different specified time points when the time-dependent counter-flow transport activity was measured), the transport was stopped with ice-chilled quench buffer [0.1 M KPi (pH 5.5) and 0.1 M lithium chloride]. […]

Structure (SMILES)	inhibitory activity against GLUT5 in screen of 175 purchased compounds (1 mM compound, fructose transport in proteoliposomes)	effect on GLUT5 fructose transport (proteoliposomes)	IC50 (proteoliposomes, 10 μM C14-fructose, measured one minute after transport initiation, read-out: IC50 of inhibition of GLUT5 fructose transport) [µM]
CS(=O)(=O)c1ccc(Nc2ccc3c(c2)OCO3)c([N+](=O)[O-])c1 [MSNBA, N-[4-(methylsulfonyl)-2-nitrophenyl]-1,3-benzodioxol-5-amine]	inhibitor of GLUT5; also recorded: inhibitory activity	completely abolished	100 ± 30
C=C1[C@@H](C)[C@H]2[C@H](Cc3ccccc3)NC(=O)[C@]23OC(=O)/C=C/[C@H](O)CCC[C@@H](C)C/C=C/[C@H]3[C@@H]1O [cytochalasin B, reference compound]	–	did not alter	–
O=C(CCc1ccc(O)cc1)c1c(O)cc(O)cc1O [phloretin, reference compound]	–	did not alter	–
